In patent US20210244698A1, “DIFFUSION ENHANCING COMPOUNDS AND THEIR USE WITH THROMBECTOMY AND EMBOLECTOMY AND OTHER VASCULAR DISEASE PROCEDURES” (DIFFUSION PHARMACEUTICALS LLC, priority 2018, published 2021):

Tests used:
[1] = Solubility of TSC in water / aqueous solution with cyclodextrin; format: physicochemical
Text: (§1) The use of gamma-cyclodextrin with TSC increases the solubility of TSC in water by 3-7 times. […] The solutions need not be equal-molar. The incorporation of the gamma cyclodextrin also allows for TSC to be absorbed into the blood stream when injected intramuscularly.
A trans carotenoid such as TSC can be formulated with a cyclodextrin as noted above and a non-metabolized sugar such as mannitol (e.g. d-mannitol to adjust the osmotic pressure to be the same as that of blood). Solutions containing over 20 mg TSC/ml of solution can be made this way. This solution can be added to isotonic saline or to other isotonic solutions in order to dilute it and still maintain the proper osmolality.

[2] = Absorption of TSC into the blood stream after intramuscular injection with gamma cyclodextrin; format: in vivo; conditions: rats
Text: as §1

[3] = Stability of TSC in formulation as a function of pH; format: physicochemical
Method: Mannitol can be used to adjust osmolality and its concentration varies depending on the concentration of other ingredients. The glycine is held constant. […] The use of glycine is compatible with lyophilization. Alternatively, the TSC and cyclodextrin is formulated using a 50 mM bicarbonate buffer in place of the glycine.

TSC content of solution ([1]; formulated with a cyclodextrin and mannitol): over 20 mg TSC/ml of solution
absorption into the blood stream when injected intramuscularly [2]: Absorption is quick
stability versus pH [3]: more stable at higher pHs
Compound: CC(/C=C/C=C(\C)C(=O)[O-])=C\C=C\C=C(C)\C=C\C=C(/C)C(=O)[O-].[Na+].[Na+] [TSC, trans sodium crocetinate]
TSC content of aqueous solution ([1]; TSC and gamma-cyclodextrin, aqueous solution): ≤ 44 milligrams of TSC per ml of solution
